Reference: PubChem BioAssay (NCI)
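Cultured in 96-well plates, cells were exposed to test compound for 48 hours across five concentrations. TGI marks complete inhibition of growth.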

Columns and labels:
Assay in all cases: NCI tumour cell line growth inhibition, 48 h
[1] = system: 786-0 renal
[2] = system: A498 renal
[3] = system: A549 NSCLC
[4] = system: ACHN renal
[5] = system: BT-549 breast
[6] = system: CAKI-1 renal
[7] = system: COLO 205 colon
[8] = system: DU-145 prostate
[9] = system: EKVX NSCLC
[10] = system: HCC-2998 colon
[11] = system: HCT-116 colon
[12] = system: HCT-15 colon
[13] = system: HL-60(TB) leukemia
[14] = system: HOP-62 NSCLC
[15] = system: HOP-92 NSCLC
[16] = system: HS 578T breast
[17] = system: HT29 colon
[18] = system: IGROV1 ovarian
[19] = system: K-562 leukemia
[20] = system: KM12 colon
[21] = system: LOX IMVI melanoma
[22] = system: M14 melanoma
[23] = system: MALME-3M melanoma
[24] = system: MCF7 breast
[25] = system: MDA-MB-231 breast
[26] = system: MDA-MB-435
[27] = system: MDA-N
[28] = system: NCI-H226 lung
[29] = system: NCI-H23 lung
[30] = system: NCI-H460 lung
[31] = system: NCI-H522 lung
[32] = system: NCI/ADR-RES ovarian
[33] = system: OVCAR-3 ovarian
[34] = system: OVCAR-4 ovarian
[35] = system: OVCAR-5 ovarian
[36] = system: OVCAR-8 ovarian
[37] = system: PC-3 prostate
[38] = system: RPMI-8226 leukemia
[39] = system: RXF 393 renal
[40] = system: SF-268 CNS
[41] = system: SF-295 CNS
[42] = system: SF-539 CNS
[43] = system: SK-MEL-2 melanoma
[44] = system: SK-MEL-28 melanoma
[45] = system: SK-MEL-5 melanoma
[46] = system: SK-OV-3 ovarian
[47] = system: SN12C renal
[48] = system: SNB-19 CNS
[49] = system: SNB-75 CNS
[50] = system: SW-620 colon
[51] = system: T-47D breast
[52] = system: TK-10 renal
[53] = system: U251 CNS
[54] = system: UACC-257 melanoma
[55] = system: UACC-62 melanoma
[56] = system: UO-31 renal
[57] = system: CCRF-CEM leukemia
[58] = system: MOLT-4 leukemia

In the case of `CC(C)NC(=O)CN1CCN(c2c(O)c3c(c(O)c2Cl)C(=O)C=CC3=O)CC1`, the TGI [1] is reported as 6.14 µM, the TGI [2] is reported as 7.29 µM and the TGI [3] is reported as 20.3 µM. The TGI [4] was 4.9 µM, the TGI [5] was 2.85 µM and the TGI [6] was 5 µM. The TGI [7] was 2.89 µM, the TGI [8] was 7.31 µM and the TGI [9] was 12 µM. The TGI [10] was 10 µM, the TGI [11] was 2.61 µM and the TGI [12] was 3.19 µM. For the same molecule, the TGI [13] was 0.642 µM, the TGI [14] was 18.6 µM and the TGI [15] was 4.16 µM. It also gave a TGI [16] of 6.42 µM, a TGI [17] of 2.58 µM and a TGI [18] of 4.66 µM. The TGI [19] was > 100 µM, the TGI [20] was 18.4 µM and the TGI [21] was 1.92 µM. It also gave a TGI [22] of 2.93 µM, a TGI [23] of 2.7 µM and a TGI [24] of 3.47 µM. The TGI [25] was 4.26 µM, the TGI [26] was 3.38 µM and the TGI [27] was 3.43 µM. For the same molecule, the TGI [28] was 41.5 µM, the TGI [29] was 3.02 µM and the TGI [30] was 22.1 µM. It also gave a TGI [31] of 3.33 µM, a TGI [32] of 10.7 µM and a TGI [33] of 2.97 µM. For the same molecule, the TGI [34] was 3.12 µM, the TGI [35] was 6.54 µM and the TGI [36] was 3.81 µM. It also gave a TGI [37] of 4.75 µM, a TGI [38] of 7.27 µM and a TGI [39] of 2.92 µM. It also gave a TGI [40] of 4.04 µM, a TGI [41] of 19.7 µM and a TGI [42] of 3.66 µM. The TGI [43] was 3.1 µM, the TGI [44] was 3.17 µM and the TGI [45] was 3.45 µM. It also gave a TGI [46] of 24.3 µM, a TGI [47] of 3.28 µM and a TGI [48] of 26.9 µM. For the same molecule, the TGI [49] was 11.3 µM, the TGI [50] was 1.92 µM and the TGI [51] was 3.67 µM. For the same molecule, the TGI [52] was 4.27 µM, the TGI [53] was 10.3 µM and the TGI [54] was 3.25 µM. For the same molecule, the TGI [55] was 3.22 µM and the TGI [56] was 2.64 µM.
`COc1cc(C(O)(CC#N)c2cc3c(cc2Br)OCO3)cc(OC)c1OC` (stereo unspecified) was tested, and the TGI [3] was > 100 µM, the TGI [4] was > 100 µM and the TGI [5] was > 100 µM. The TGI [6] was 75.8 µM, the TGI [57] was > 100 µM and the TGI [7] was > 100 µM. For the same molecule, the TGI [8] was > 100 µM, the TGI [9] was > 100 µM and the TGI [10] was 66.1 µM. The TGI [11] was > 100 µM, the TGI [14] was 35.9 µM and the TGI [15] was > 100 µM. The TGI [17] was 54.9 µM, the TGI [18] was > 100 µM and the TGI [19] was > 100 µM. For the same molecule, the TGI [20] was 98.7 µM, the TGI [21] was > 100 µM and the TGI [22] was 50.5 µM. For the same molecule, the TGI [24] was > 100 µM, the TGI [25] was 54.5 µM and the TGI [26] was 13.7 µM. The TGI [27] was > 100 µM, the TGI [58] was > 100 µM and the TGI [28] was 83.3 µM. For the same molecule, the TGI [29] was > 100 µM, the TGI [30] was 50.8 µM and the TGI [32] was > 100 µM. The TGI [33] was > 100 µM, the TGI [34] was > 100 µM and the TGI [35] was > 100 µM. The TGI [36] was > 100 µM, the TGI [37] was > 100 µM and the TGI [38] was > 100 µM. For the same molecule, the TGI [39] was > 100 µM, the TGI [40] was > 100 µM and the TGI [41] was > 100 µM. The TGI [42] was 34.9 µM, the TGI [43] was > 100 µM and the TGI [44] was > 100 µM. For the same molecule, the TGI [46] was > 100 µM, the TGI [47] was > 100 µM and the TGI [48] was 76.1 µM. For the same molecule, the TGI [49] was > 100 µM, the TGI [50] was > 100 µM and the TGI [51] was > 100 µM. For the same molecule, the TGI [52] was > 100 µM, the TGI [53] was > 100 µM and the TGI [54] was > 100 µM. The TGI [55] was > 100 µM and the TGI [56] was > 100 µM.
